Earlier results on one compound are cited in patent US20240043928A1, “BIOMARKERS FOR MYELODYSPLASTIC SYNDROME (MDS) AND METHODS OF USING THE SAME” (Eisai R&D Management Co., Ltd., priority 2020, published 2024).

For this data set the following is noted: subjects of a prior phase 1 trial; cited from earlier work.

With `CC[C@H](O)[C@@H](C)[C@H]1O[C@@H]1C[C@@](C)(O)/C=C/C=C(\C)[C@H]1OC(=O)C[C@H](O)CC[C@@](C)(O)[C@@H](OC(=O)N2CCN(C3CCCCCC3)CC2)/C=C/[C@@H]1C` [Compound E7107], the visual loss entry is recorded as “visual loss was observed”.
